In US20250084040A1, “SUBSTITUTED HETEROCYCLES AS c-MYC TARGETING AGENTS” (Northwestern University, priority 2018, published 2025):

How the values were obtained:
[1] = test system: NCI 60 cell panel; assay: NCI 60 Cell One-Dose Screen; assay type: cell-based, human; conditions: 1.00E−5 Molar; for Growth Percent, Delta: Delta of the mean graph; for Growth Percent, Mean: Mean over the cell panel; for Growth Percent, Range: Range over the cell panel
Description: General Description. As of early 2007 all compounds submitted to the NCI 60 Cell screen are tested initially at a single high dose (10^-5 M) in the full NCI 60 cell panel. Only compounds which satisfy pre-determined threshold inhibition criteria in a minimum number of cell lines will progress to the full 5-dose assay. The threshold inhibition criteria for progression to the 5-dose screen was selected to efficiently capture compounds with anti-proliferative activity based on careful analysis of historical DTP screening data. The threshold criteria may be updated as additional data becomes available.
Interpretation of One-Dose Data. The One-dose data will be reported as a mean graph of the percent growth of treated cells and will be similar in appearance to mean graphs from the 5-dose assay. The number reported for the One-dose assay is growth relative to the no-drug control, and relative to the time zero number of cells. This allows detection of both growth inhibition (values between 0 and 100) and lethality (values less than 0). This is the same as for the 5-dose assay, described below. For example, a value of 100 means no growth inhibition. A value of 40 would mean 60% growth inhibition. A value of 0 means no net growth over the course of the experiment. A value of −40 would mean 40% lethality. A value of −100 means all cells are dead. Information from the One-dose mean graph is available for COMPARE analysis.
The human tumor cell lines of the cancer screening panel are grown in RPMI 1640 medium containing 5% fetal bovine serum and 2 mM L-glutamine. For a typical screening experiment, cells are inoculated into 96 well microtiter plates in 100 μL at plating densities ranging from 5,000 to 40,000 cells/well depending on the doubling time of individual cell lines. After cell inoculation, the microtiter plates are incubated at […], 5% CO2, 95% air and 100% relative humidity for 24 h prior to addition of experimental drugs.
After 24 h, two plates of each cell line are fixed in situ with TCA, to represent a measurement of the cell population for each cell line at the time of drug addition (Tz). Experimental drugs are solubilized in dimethyl sulfoxide at 400-fold the desired final maximum test concentration and stored frozen prior to use. At the time of drug addition, an aliquot of frozen concentrate is thawed and diluted to twice the desired final maximum test concentration with complete medium containing 50 µg/ml gentamicin. Additional four, 10-fold or ½ log serial dilutions are made to provide a total of five drug concentrations plus control. Aliquots of 100 μl of these different drug dilutions are added to the appropriate microtiter wells already containing 100 μl of medium, resulting in the required final drug concentrations.
Following drug addition, the plates are incubated for an additional 48 h at 37° C., 5% CO2, 95% air, and 100% relative humidity. For adherent cells, the assay is terminated by the addition of cold TCA. Cells are fixed in situ by the gentle addition of 50 μl of cold 50% (w/v) TCA (final concentration, 10% TCA) and incubated for 60 minutes at 4° C. The supernatant is discarded, and the plates are washed five times with tap water and air dried. Sulforhodamine B (SRB) solution (100 μl) at 0.4% (w/v) in 1% acetic acid is added to each well, and plates are incubated for 10 minutes at room temperature. After staining, unbound dye is removed by washing five times with 1% acetic acid and the plates are air dried. Bound stain is subsequently solubilized with 10 mM trizma base, and the absorbance is read on an automated plate reader at a wavelength of 515 nm. For suspension cells, the methodology is the same except that the assay is terminated by fixing settled cells at the bottom of the wells by gently adding 50 μl of 80% TCA (final concentration, 16% TCA). […]

[2] = In vitro metabolism, mouse liver microsomes; assay type: in vitro ADME; conditions: % remaining of compound after 60 min treatment with mouse liver microsomes
Description: In vitro metabolism of NUCC-176242 and NUCC-176248 were tested using mouse liver microsomes and a mouse S9 fraction. (See FIG. 9).

[3] = A549/ATCC (Non-Small Cell Lung Cancer)
[4] = EKVX (Non-Small Cell Lung Cancer)
[5] = HOP-62 (Non-Small Cell Lung Cancer)
[6] = HOP-92 (Non-Small Cell Lung Cancer)
[7] = MDA-MB-231/ATCC (Breast Cancer)
[8] = NCI-H23 (Non-Small Cell Lung Cancer)
[9] = NCI-H322M (Non-Small Cell Lung Cancer)
[10] = NCI-H460 (Non-Small Cell Lung Cancer)
[11] = NCI-H522 (Non-Small Cell Lung Cancer)

CC(C)CCOc1ccc(-c2cc(C(F)(F)F)n[nH]2)c(O)c1-c1cncc(C#N)c1 [NSC: D-804956/1]
Growth Percent ([1]; 786-0 (Renal Cancer)): 17.07% | Growth Percent ([1]; A498 (Renal Cancer)): −25.54% | Growth Percent [1, 3]: 10.39% | Growth Percent ([1]; ACHN (Renal Cancer)): 8.84% | Growth Percent ([1]; BT-549 (Breast Cancer)): 6.56% | Growth Percent ([1]; CAKI-1 (Renal Cancer)): 9.47% | Growth Percent ([1]; CCRF-CEM (Leukemia)): 6.67% | Growth Percent ([1]; COLO 205 (Colon Cancer)): 49.05% | Growth Percent ([1]; DU-145 (Prostate Cancer)): 17.95% | Growth Percent, Delta [1]: 40.88% | Growth Percent [1, 4]: 3.52% | Growth Percent ([1]; HCC-2998 (Colon Cancer)): 16.23% | Growth Percent ([1]; HCT-15 (Colon Cancer)): 11.96% | Growth Percent ([1]; HCT-116 (Colon Cancer)): 2.41% | Growth Percent ([1]; HL-60(TB) (Leukemia)): 3.64% | Growth Percent [1, 5]: 5.79% | Growth Percent [1, 6]: −27.95% | Growth Percent ([1]; HS 578T (Breast Cancer)): 17.96% | Growth Percent ([1]; HT29 (Colon Cancer)): 48.91% | Growth Percent ([1]; IGROV1 (Ovarian Cancer)): 46.89% | Growth Percent ([1]; KM12 (Colon Cancer)): 7.94% | Growth Percent ([1]; LOX IMVI (Melanoma)): 5.15% | Growth Percent ([1]; M14 (Melanoma)): 22.46% | Growth Percent ([1]; MALME-3M (Melanoma)): −0.80% | Growth Percent ([1]; MCF7 (Breast Cancer)): 2.95% | Growth Percent [1, 7]: 1.43% | Growth Percent ([1]; MDA-MB-435 (Melanoma)): 7.91% | Growth Percent ([1]; MDA-MB-468 (Breast Cancer)): −26.3% | Growth Percent ([1]; MOLT-4 (Leukemia)): 22.96% | Growth Percent, Mean [1]: 9.05% | Growth Percent [1, 8]: −0.16% | Growth Percent [1, 9]: 12.44% | Growth Percent [1, 10]: 3.48% | Growth Percent [1, 11]: −6.89% | Growth Percent ([1]; NCI/ADR-RES (Ovarian Cancer)): 2.45% | Growth Percent ([1]; OVCAR-3 (Ovarian Cancer)): 2.95% | Growth Percent ([1]; OVCAR-4 (Ovarian Cancer)): 20.48% | Growth Percent ([1]; OVCAR-5 (Ovarian Cancer)): 36.89% | Growth Percent ([1]; OVCAR-8 (Ovarian Cancer)): 12.48% | Growth Percent ([1]; PC-3 (Prostate Cancer)): 1.74% | Growth Percent ([1]; RPMI-8226 (Leukemia)): −31.83% | Growth Percent, Range [1]: 80.88% | Growth Percent ([1]; SF-268 (CNS Cancer)): 21.93% | Growth Percent ([1]; SF-295 (CNS Cancer)): 0.83% | Growth Percent ([1]; SF-539 (CNS Cancer)): 25.17% | Growth Percent ([1]; SK-MEL-2 (Melanoma)): −13.82% | Growth Percent ([1]; SK-MEL-28 (Melanoma)): 33.67% | Growth Percent ([1]; SK-OV-3 (Ovarian Cancer)): −7.94% | Growth Percent ([1]; SN12C (Renal Cancer)): 3.81% | Growth Percent ([1]; SNB-19 (CNS Cancer)): 13.09% | Growth Percent ([1]; SNB-75 (CNS Cancer)): 30.14% | Growth Percent ([1]; SR (Leukemia)): 33.69% | Growth Percent ([1]; SW-620 (Colon Cancer)): 14.25% | Growth Percent ([1]; T-47D (Breast Cancer)): 2.83% | Growth Percent ([1]; TK-10 (Renal Cancer)): 11.38% | Growth Percent ([1]; U251 (CNS Cancer)): 2.85% | Growth Percent ([1]; UACC-62 (Melanoma)): 17.46% | Growth Percent ([1]; UACC-257 (Melanoma)): −14.05% | Growth Percent ([1]; UO-31 (Renal Cancer)): 3.89%

CCc1c(OCc2ccc(Cl)cc2)ccc(-c2cc(C(F)(F)F)n[nH]2)c1O [NUCC-0200739]
MLM % at 60 min [2]: 46.4%

Oc1c(-c2cc(C(F)(F)F)[nH]n2)ccc(OCc2ccc(Cl)cc2)c1-c1ccccc1Cl [NUCC-0196363]
MLM % at 60 min [2]: 88.6%

Cn1nc(C(F)(F)F)cc1-c1ccc(OCc2ccc(Cl)cc2)c(-c2cc(C(F)(F)F)cc(C(F)(F)F)c2)c1O [NUCC-0196361]
MLM % at 60 min [2]: 72.9%

CCCCCCOc1ccc(-c2cc(C(F)(F)F)n[nH]2)c(O)c1-c1cc(C(F)(F)F)cc(C(F)(F)F)c1 [NUCC-0201196]
MLM % at 60 min [2]: 66.6%

Cn1nc(C(F)(F)F)cc1-c1ccc(OCc2ccc(Cl)cc2)cc1C=O [NUCC-0200976]
MLM % at 60 min [2]: 21.8%

CCCCCCOc1ccc(-c2cc(C(F)(F)F)nn2C)c(O)c1-c1cncc(C#N)c1 [NUCC-0201207]
MLM % at 60 min [2]: 52.7%

Cn1nc(C(F)(F)F)cc1-c1ccc(OCc2ccc(Cl)cc2)c(-c2ccc(Cl)c(C(F)(F)F)c2)c1O [NSC: D-804955/1]
Growth Percent ([1]; 786-0 (Renal Cancer)): 28.42% | Growth Percent ([1]; A498 (Renal Cancer)): 5.29% | Growth Percent [1, 3]: 12.83% | Growth Percent ([1]; ACHN (Renal Cancer)): 5.21% | Growth Percent ([1]; BT-549 (Breast Cancer)): 39.82% | Growth Percent ([1]; CAKI-1 (Renal Cancer)): 19.80% | Growth Percent ([1]; CCRF-CEM (Leukemia)): 9.89% | Growth Percent ([1]; COLO 205 (Colon Cancer)): 24.55% | Growth Percent ([1]; DU-145 (Prostate Cancer)): 19.03% | Growth Percent, Delta [1]: 35.96% | Growth Percent [1, 4]: 12.77% | Growth Percent ([1]; HCC-2998 (Colon Cancer)): 13.50% | Growth Percent ([1]; HCT-15 (Colon Cancer)): 8.53% | Growth Percent ([1]; HCT-116 (Colon Cancer)): −0.40% | Growth Percent ([1]; HL-60(TB) (Leukemia)): 9.30% | Growth Percent [1, 5]: 50.48% | Growth Percent [1, 6]: −22.43% | Growth Percent ([1]; HS 578T (Breast Cancer)): 22.83% | Growth Percent ([1]; HT29 (Colon Cancer)): 20.44% | Growth Percent ([1]; IGROV1 (Ovarian Cancer)): 38.95% | Growth Percent ([1]; KM12 (Colon Cancer)): 8.83% | Growth Percent ([1]; LOX IMVI (Melanoma)): 5.24% | Growth Percent ([1]; M14 (Melanoma)): 35.38% | Growth Percent ([1]; MALME-3M (Melanoma)): 12.24% | Growth Percent ([1]; MCF7 (Breast Cancer)): 4.01% | Growth Percent [1, 7]: 8.70% | Growth Percent ([1]; MDA-MB-435 (Melanoma)): 24.66% | Growth Percent ([1]; MDA-MB-468 (Breast Cancer)): −18.75% | Growth Percent ([1]; MOLT-4 (Leukemia)): 12.26% | Growth Percent, Mean [1]: 13.53% | Growth Percent [1, 8]: −6.46% | Growth Percent [1, 9]: 18.15% | Growth Percent [1, 10]: 6.25% | Growth Percent [1, 11]: −13.66% | Growth Percent ([1]; NCI/ADR-RES (Ovarian Cancer)): 8.38% | Growth Percent ([1]; OVCAR-3 (Ovarian Cancer)): 1.24% | Growth Percent ([1]; OVCAR-4 (Ovarian Cancer)): 30.19% | Growth Percent ([1]; OVCAR-5 (Ovarian Cancer)): 53.43% | Growth Percent ([1]; OVCAR-8 (Ovarian Cancer)): 7.41% | Growth Percent ([1]; PC-3 (Prostate Cancer)): 3.78% | Growth Percent ([1]; RPMI-8226 (Leukemia)): −17.88% | Growth Percent, Range [1]: 75.86% | Growth Percent ([1]; SF-268 (CNS Cancer)): 26.01% | Growth Percent ([1]; SF-295 (CNS Cancer)): 12.82% | Growth Percent ([1]; SF-539 (CNS Cancer)): 34.37% | Growth Percent ([1]; SK-MEL-2 (Melanoma)): 1.95% | Growth Percent ([1]; SK-MEL-28 (Melanoma)): 31.16% | Growth Percent ([1]; SK-OV-3 (Ovarian Cancer)): 20.62% | Growth Percent ([1]; SN12C (Renal Cancer)): 6.24% | Growth Percent ([1]; SNB-19 (CNS Cancer)): 19.21% | Growth Percent ([1]; SNB-75 (CNS Cancer)): 47.69% | Growth Percent ([1]; SR (Leukemia)): 25.07% | Growth Percent ([1]; SW-620 (Colon Cancer)): 13.94% | Growth Percent ([1]; T-47D (Breast Cancer)): −0.38% | Growth Percent ([1]; TK-10 (Renal Cancer)): 0.36% | Growth Percent ([1]; U251 (CNS Cancer)): 0.82% | Growth Percent ([1]; UACC-62 (Melanoma)): 19.68% | Growth Percent ([1]; UACC-257 (Melanoma)): 2.35% | Growth Percent ([1]; UO-31 (Renal Cancer)): −6.34%

Oc1c(-c2cc(C(F)(F)F)[nH]n2)ccc(Oc2ccc(Cl)cc2)c1-c1cc(C(F)(F)F)cc(C(F)(F)F)c1 [NUCC-0201223]
MLM % at 60 min [2]: 75.8%

COc1cccc(-c2c(-c3ccc(OCc4ccc(Cl)cc4)cc3O)n[nH]c2C(F)(F)F)c1 [NUCC-0198309]
MLM % at 60 min [2]: 74%
